Laboratory results taken from ChEMBL document CHEMBL5532656, “Novel ligustilide derivatives target quorum sensing system LasR/LasB and relieve inflammatory response against Pseudomonas aeruginosa infection” (Eur J Med Chem, 2024).
Calls of active or inactive are those of the source. No cut-off for these calls is given here.

Columns and labels:
[1] = tested on: Mus musculus; test: Anti-inflammatory activity against LPS-induced acute lung injury mouse model assessed as reduction in COX-2 mRNA expression at 1 to 2 mg/kg, po preincubated for 4 hrs followed by LPS stimulation and measured after 6 hrs; format: functional, organism-based; conditions: dose 1-2 mg/kg, time 10.0 hrs
[2] = tested on: Erythrocyte; test: Hemolytic activity in mouse erythrocytes assessed as hemolysis at 0.625 to 10 micromol/L measured after 4 hrs by microplate reader method; format: toxicity, cell-based; conditions: dose 0.625-10 µmol/L
[3] = tested on: Mus musculus; test: Anti-inflammatory activity against LPS-induced acute lung injury mouse model assessed as reduction in IL-1 beta mRNA expression at 1 to 2 mg/kg, po preincubated for 4 hrs followed by LPS stimulation and measured after 6 hrs; format: functional, organism-based; conditions: dose 1-2 mg/kg, time 10.0 hrs
[4] = tested on: RAW264.7; test: Antiinflammatory activity in LPS-induced mouse RAW264.7 cells assessed as inhibition of IL-6 production pretreated for 3 hrs followed by LPS stimulation and measured after 24 hrs by ELISA method; format: functional, cell-based
[5] = Toxicity in BALB/c mouse assessed as effect on spleen at 2 to 4 mg/kg, PO measured after 7 days by H and E staining based analysis; format: organism-based; conditions: in vivo, 168 h, dose 2-4 mg/kg, time 7 day
[6] = Toxicity in BALB/c mouse assessed as adverse effect at 2 to 4 mg/kg, IG; format: organism-based; conditions: in vivo, po, dose 2-4 mg/kg
[7] = Toxicity in BALB/c mouse assessed as effect on lung at 2 to 4 mg/kg, PO measured after 7 days by H and E staining based analysis; format: organism-based; conditions: in vivo, 168 h, dose 2-4 mg/kg, time 7 day
[8] = Toxicity in BALB/c mouse assessed as effect on heart at 2 to 4 mg/kg, PO measured after 7 days by H and E staining based analysis; format: organism-based; conditions: in vivo, 168 h, dose 2-4 mg/kg, time 7 day
[9] = tested on: RAW264.7; test: Inhibition of LPS-induced ROS production in mouse RAW264.7 cells by DCFH-DA staining based fluorescence method; format: functional, cell-based
[10] = tested on: Mus musculus; test: Protection against LPS-induced acute lung injury mouse model assessed as inhibition of edema at 1 to 2 mg/kg, po preincubated for 4 hrs followed by LPS stimulation and measured after 6 hrs by H and E staining based analysis; format: functional, organism-based; conditions: dose 1-2 mg/kg, time 10.0 hrs
[11] = Inhibition of quorum sensing system in Pseudomonas aeruginosa PAO1 assessed as reduction in elastase level using BODIPY-FL-labeled DQ elastin conjugate as substrate measured after 24 hrs by fluorometric method
[12] = tested on: RAW264.7; test: Antiinflammatory activity in LPS-induced mouse RAW264.7 cells assessed as inhibition of TNF-alpha production pretreated for 3 hrs followed by LPS stimulation and measured after 24 hrs by ELISA method; format: functional, cell-based
[13] = tested on: RAW264.7; test: Antiinflammatory activity in LPS-induced mouse RAW264.7 cells assessed as decrease in NLRP3 expression level pretreated for 3 hrs followed by LPS stimulation and measured after 24 hrs by Western blot analysis; format: functional, cell-based; conditions: dose 1.25-10 µmol/L, time 27.0 hrs
[14] = tested on: RAW264.7; test: Inhibition of JNK signaling in mouse RAW264.7 cells assessed as reduction in LPS induced JNK phosphorylation by Western blot analysis; format: cell-based
[15] = tested on: RAW264.7; test: Antiinflammatory activity in mouse RAW264.7 cells assessed as reduction in COX-2 mRNA expression at 2.5 to 10 uM by RT-PCR analysis; format: functional, cell-based; conditions: dose 2.5-10 µM
[16] = tested on: RAW264.7; test: Antiinflammatory activity in mouse RAW264.7 cells assessed as reduction in iNOS mRNA expression at 2.5 to 10 uM by RT-PCR analysis; format: functional, cell-based; conditions: dose 2.5-10 µM
[17] = tested on: RAW264.7; test: Antiinflammatory activity in LPS-induced mouse RAW264.7 cells assessed as decrease in iNOS expression level pretreated for 3 hrs followed by LPS stimulation and measured after 24 hrs by Western blot analysis; format: functional, cell-based; conditions: dose 1.25-10 µmol/L, time 27.0 hrs
[18] = Toxicity in BALB/c mouse assessed as effect on liver at 2 to 4 mg/kg, PO measured after 7 days by H and E staining based analysis; format: organism-based; conditions: in vivo, 168 h, dose 2-4 mg/kg, time 7 day
[19] = Toxicity in Zebra fish AB embryo assessed as viability of zebrafish larvae at <50 uM measured upto 120 hrs post fertilization by stereomicroscopic analysis; parameters: species or system Danio rerio
[20] = tested on: Mus musculus; test: Anti-inflammatory activity against LPS-induced acute lung injury mouse model assessed as reduction in iNOS mRNA expression at 1 to 2 mg/kg, po preincubated for 4 hrs followed by LPS stimulation and measured after 6 hrs; format: functional, organism-based; conditions: dose 1-2 mg/kg, time 10.0 hrs
[21] = Inhibition of quorum sensing system in Pseudomonas aeruginosa PAO1-lasB-gfp assessed as reduction in GFP expression incubated for 14 hrs
[22] = tested on: Mus musculus; test: Anti-inflammatory activity against LPS-induced acute lung injury mouse model assessed as downregulation of IL-6 level administered as po dose preincubated for 4 hrs followed by LPS stimulation and measured after 6 hrs by ELISA method; format: functional, organism-based; conditions: dose 1-2 mg/kg, time 10.0 hrs
[23] = tested on: RAW264.7; test: Cytotoxicity against mouse RAW264.7 cells assessed as reduction in cell viability at <20 uM measured after 24 hrs by MTT assay; format: functional, cell-based
[24] = Toxicity in BALB/c mouse assessed as effect on body weight at 2 to 4 mg/kg, IG; format: organism-based; conditions: in vivo, po, dose 2-4 mg/kg
[25] = tested on: RAW264.7; test: Cytotoxicity against mouse RAW264.7 cells assessed as reduction in cell viability at 50 uM measured after 24 hrs by MTT assay; format: functional, cell-based
[26] = organism: Danio rerio; test: Inhibition of macrophage migration in 4 days post fertilized Zebra fish AB embryo assessed as reduction in green fluorescence at 10 micromol/L measured after 4 to 6 hrs by fluorescence microscope based analysis; format: functional, organism-based; conditions: dose 10.0 µmol/L, time […]
[27] = tested on: Mus musculus; test: Anti-inflammatory activity against LPS-induced acute lung injury mouse model assessed as reduction in IL-6 mRNA expression at 1 to 2 mg/kg, po preincubated for 4 hrs followed by LPS stimulation and measured after 6 hrs; format: functional, organism-based; conditions: dose 1-2 mg/kg, time 10.0 hrs
[28] = Toxicity in BALB/c mouse assessed as effect on kidney at 2 to 4 mg/kg, PO measured after 7 days by H and E staining based analysis; format: organism-based; conditions: in vivo, 168 h, dose 2-4 mg/kg, time 7 day
[29] = tested on: RAW264.7; test: Antiinflammatory activity in mouse RAW264.7 cells assessed as reduction in TNF alpha mRNA expression at 2.5 to 10 uM by RT-PCR analysis; format: functional, cell-based; conditions: dose 2.5-10 µM
[30] = tested on: RAW264.7; test: Inhibition of ERK signaling in mouse RAW264.7 cells assessed as reduction in LPS induced ERK phosphorylation by Western blot analysis; format: cell-based
[31] = Cytotoxicity against African green monkey Vero cells assessed as reduction in cell viability at <20 uM measured after 24 hrs by MTT assay; format: toxicity, cell-based; conditions: chlorocebus sabaeus
[32] = Toxicity in BALB/c mouse assessed as effect on animal health at 2 to 4 mg/kg, IG; format: organism-based; conditions: in vivo, po, dose 2-4 mg/kg
[33] = Cytotoxicity against African green monkey Vero cells assessed as reduction in cell viability at 50 uM measured after 24 hrs by MTT assay; format: toxicity, cell-based; conditions: chlorocebus sabaeus
[34] = tested on: Mus musculus; test: Anti-inflammatory activity against LPS-induced acute lung injury mouse model assessed as reduction in TNF-alpha mRNA expression at 1 to 2 mg/kg, po preincubated for 4 hrs followed by LPS stimulation and measured after 6 hrs; format: functional, organism-based; conditions: dose 1-2 mg/kg, time 10.0 hrs
[35] = tested on: Mus musculus; test: Anti-inflammatory activity against LPS-induced acute lung injury mouse model assessed as downregulation of IL-1 beta level administered as po dose preincubated for 4 hrs followed by LPS stimulation and measured after 6 hrs by ELISA method; format: functional, organism-based; conditions: dose 1-2 mg/kg, time 10.0 hrs

CCCCC1(O)C2=C(C=CCC2)C(=O)N1Cc1ccc(C(F)(F)F)cc1 (configuration not stated)
Activity [1]: Active
Activity [2]: Toxic
Activity [3]: Active
IC50 [4]: 2.61 µM
Activity [5]: Non-Toxic
Activity [6]: Non-Toxic
Activity [7]: Non-Toxic
Activity [8]: Non-Toxic
IC50 [9]: 1.44 µM
Activity [10]: Active
IC50 [11]: 7.3 µM
inhibition ([11]; dose 0.625-10 µM): Dose-Dependent Effect
IC50 [12]: 6.2 µM
Activity [13]: Dose-Dependent Effect
inhibition [14]: Active
Activity [15]: Active
Activity [16]: Active
Activity [17]: Dose-Dependent Effect
Activity [18]: Non-Toxic
Activity [19]: Non-Toxic
Activity [20]: Active
IC50 [21]: 8.7 µM
inhibition ([21]; dose 0.625-10 µM): Dose-Dependent Effect
Activity [22]: Dose-Dependent Effect
Activity [23]: inactive
Activity [24]: Toxic
Activity [25]: Active
inhibition [26]: Active
Activity [27]: Active
Activity [28]: Non-Toxic
Activity [29]: Active
inhibition [30]: Active
Activity [31]: Non-Toxic
Activity [32]: Non-Toxic
Activity [33]: Toxic
Activity [34]: Active
Activity [35]: Dose-Dependent Effect
